This note sets out measurements from patent US11331369B2, “Endoparasitic depsipeptides” (Zoetis Services LLC, priority 2017, dated 2022).

For this assay, the system named is microfilariae of Dirofilaria immitis. In words: Dirofilaria immitis, Microfilaria (DiMF) In vitro Assay. It counts as cell-based. The following applies: 72 h, read-out: DiMF Minimum Effective Dose (MED), approximately 72 hours incubation, microfilariae assessed for survival or paralysis.

`CC(C)C[C@H]1C(=O)O[C@H](Cc2ccc(Cn3cc([N+](=O)[O-])cn3)cc2)C(=O)N(C)[C@@H](CC(C)C)C(=O)O[C@H](C)C(=O)N(C)[C@@H](CC(C)C)C(=O)O[C@H](Cc2ccccc2)C(=O)N(C)[C@@H](CC(C)C)C(=O)O[C@H](C)C(=O)N1C` [Example 2-29, (3S,6R,9S,12R,15S,18R,21S,24R)-6-benzyl-3,9,15,21-tetraisobutyl-4,10,12,16,22,24-hexamethyl-18-(4-((4-nitro-1H-pyrazol-1-yl)methyl)benzyl)-1,7,13,19-tetraoxa-4,10,16,22-tetraazacyclotetracosan-2,5,8,11,14,17,20,23-octaone]: the minimal effective concentration lay within 0.001 to 0.01 µM.
For `CC(=O)Nc1cnn(Cc2ccc(C[C@H]3OC(=O)[C@H](CC(C)C)N(C)C(=O)[C@@H](C)OC(=O)[C@H](CC(C)C)N(C)C(=O)[C@@H](Cc4ccccc4)OC(=O)[C@H](CC(C)C)N(C)C(=O)[C@@H](C)OC(=O)[C@H](CC(C)C)N(C)C3=O)cc2)c1` [Example 2-31, N-(1-(4-(((2R,5S,8R,11S,14R,17S,20R,23S)-14-benzyl-5,11,17,23-tetraisobutyl-4,8,10,16,20,22-hexamethyl-3,6,9,12,15,18,21,24-octaoxo-1,7,13,19-tetraoxa-4,10,16,22-tetraazacyclotetracosan-2-yl)methyl)benzyl)-1H-pyrazol-4-yl)acetamide], the minimal effective concentration lay in the range of 0.01 to 0.1 µM.
On to `CC(C)C[C@H]1C(=O)O[C@H](Cc2ccc(Cn3nc(C4CC4)cc3C3CC3)cc2)C(=O)N(C)[C@@H](CC(C)C)C(=O)O[C@H](C)C(=O)N(C)[C@@H](CC(C)C)C(=O)O[C@H](Cc2ccccc2)C(=O)N(C)[C@@H](CC(C)C)C(=O)O[C@H](C)C(=O)N1C` [Example 2-32, (3S,6R,9S,12R,15S,18R,21S,24R)-6-benzyl-18-(4-((3,5-dicyclopropyl-1H-pyrazol-1-yl)methyl)benzyl)-3,9,15,21-tetraisobutyl-4,10,12,16,22,24-hexamethyl-1,7,13,19-tetraoxa-4,10,16,22-tetraazacyclotetracosan-2,5,8,11,14,17,20,23-octaone], for which the minimal effective concentration lay within 0.01 to 0.1 µM.
`CC(C)C[C@H]1C(=O)O[C@H](Cc2ccc(Cn3cc(CCO)cn3)cc2)C(=O)N(C)[C@@H](CC(C)C)C(=O)O[C@H](C)C(=O)N(C)[C@@H](CC(C)C)C(=O)O[C@H](Cc2ccccc2)C(=O)N(C)[C@@H](CC(C)C)C(=O)O[C@H](C)C(=O)N1C` [Example 2-35, (3S,6R,9S,12R,15S,18R,21S,24R)-6-benzyl-18-(4-((4-(2-hydroxyethyl)-1H-pyrazol-1-yl)methyl)benzyl)-3,9,15,21-tetraisobutyl-4,10,12,16,22,24-hexamethyl-1,7,13,19-tetraoxa-4,10,16,22-tetraazacyclotetracosan-2,5,8,11,14,17,20,23-octaone]: the minimal effective concentration was 0.01 to 0.1 µM.
`CC(C)C[C@H]1C(=O)O[C@H](Cc2ccc(Cn3cc(NS(C)(=O)=O)cn3)cc2)C(=O)N(C)[C@@H](CC(C)C)C(=O)O[C@H](C)C(=O)N(C)[C@@H](CC(C)C)C(=O)O[C@H](Cc2ccccc2)C(=O)N(C)[C@@H](CC(C)C)C(=O)O[C@H](C)C(=O)N1C` [Example 2-36, N-(1-(4-(((2R,5S,8R,11S,14R,17S,20R,23S)-14-benzyl-5,11,17,23-tetraisobutyl-4,8,10,16,20,22-hexamethyl-3,6,9,12,15,18,21,24-octaoxo-1,7,13,19-tetraoxa-4,10,16,22-tetraazacyclotetracosan-2-yl)methyl)benzyl)-1H-pyrazol-4-yl)methanesulfonamide]: the minimal effective concentration was 0.01 to 0.1 µM.
To `CC(C)C[C@H]1C(=O)O[C@H](Cc2ccc(Cn3cc(C4CCCC4)cn3)cc2)C(=O)N(C)[C@@H](CC(C)C)C(=O)O[C@H](C)C(=O)N(C)[C@@H](CC(C)C)C(=O)O[C@H](Cc2ccccc2)C(=O)N(C)[C@@H](CC(C)C)C(=O)O[C@H](C)C(=O)N1C` [Example 2-38, (3S,6R,9S,12R,15S,18R,21S,24R)-6-benzyl-18-(4-((4-cyclopentyl-1H-pyrazol-1-yl)methyl)benzyl)-3,9,15,21-tetraisobutyl-4,10,12,16,22,24-hexamethyl-1,7,13,19-tetraoxa-4,10,16,22-tetraazacyclotetracosan-2,5,8,11,14,17,20,23-octaone] belongs 0.01 to 0.1 µM; to `CCOc1cnn(Cc2ccc(C[C@H]3OC(=O)[C@H](CC(C)C)N(C)C(=O)[C@@H](C)OC(=O)[C@H](CC(C)C)N(C)C(=O)[C@@H](Cc4ccc(CO)cc4)OC(=O)[C@H](CC(C)C)N(C)C(=O)[C@@H](C)OC(=O)[C@H](CC(C)C)N(C)C3=O)cc2)c1` [Example 2-39, (3S,6R,9S,12R,15S,18R,21S,24R)-6-(4-((4-ethoxy-1H-pyrazol-1-yl)methyl)benzyl)-18-(4-(hydroxymethyl)benzyl)-3,9,15,21-tetraisobutyl-4,10,12,16,22,24-hexamethyl-1,7,13,19-tetraoxa-4,10,16,22-tetraazacyclotetracosan-2,5,8,11,14,17,20,23-octaone], 0.001 to 0.01 µM; to `Cc1nn(Cc2ccc(C[C@H]3OC(=O)[C@H](CC(C)C)N(C)C(=O)[C@@H](C)OC(=O)[C@H](CC(C)C)N(C)C(=O)[C@@H](Cc4ccccc4)OC(=O)[C@H](CC(C)C)N(C)C(=O)[C@@H](C)OC(=O)[C@H](CC(C)C)N(C)C3=O)cc2)c(C)c1S(=O)(=O)N1CCCC1` [Example 2-40, (3S,6R,9S,12R,15S,18R,21S,24R)-6-benzyl-18-(4-((3,5-dimethyl-4-(pyrrolidin-1-ylsulfonyl)-1H-pyrazol-1-yl)methyl)benzyl)-3,9,15,21-tetraisobutyl-4,10,12,16,22,24-hexamethyl-1,7,13,19-tetraoxa-4,10,16,22-tetraazacyclotetracosan-2,5,8,11,14,17,20,23-octaone], 0.01 to 0.1 µM.
In the case of `CC(C)C[C@H]1C(=O)O[C@H](Cc2ccc(Cn3nc(CO)cc3CO)cc2)C(=O)N(C)[C@@H](CC(C)C)C(=O)O[C@H](C)C(=O)N(C)[C@@H](CC(C)C)C(=O)O[C@H](Cc2ccccc2)C(=O)N(C)[C@@H](CC(C)C)C(=O)O[C@H](C)C(=O)N1C` [Example 2-42, (3S,6R,9S,12R,15S,18R,21S,24R)-6-benzyl-18-(4-((3,5-bis(hydroxymethyl)-1H-pyrazol-1-yl)methyl)benzyl)-3,9,15,21-tetraisobutyl-4,10,12,16,22,24-hexamethyl-1,7,13,19-tetraoxa-4,10,16,22-tetraazacyclotetracosan-2,5,8,11,14,17,20,23-octaone], the minimal effective concentration fell in the range of 0.01 to 0.1 µM.
As to `CC(=O)Nc1c(C)nn(Cc2ccc(C[C@H]3OC(=O)[C@H](CC(C)C)N(C)C(=O)[C@@H](C)OC(=O)[C@H](CC(C)C)N(C)C(=O)[C@@H](Cc4ccccc4)OC(=O)[C@H](CC(C)C)N(C)C(=O)[C@@H](C)OC(=O)[C@H](CC(C)C)N(C)C3=O)cc2)c1C` [Example 2-43, N-(1-(4-(((2R,5S,8R,11S,14R,17S,20R,23S)-14-benzyl-5,11,17,23-tetraisobutyl-4,8,10,16,20,22-hexamethyl-3,6,9,12,15,18,21,24-octaoxo-1,7,13,19-tetraoxa-4,10,16,22-tetraazacyclotetracosan-2-yl)methyl)benzyl)-3,5-dimethyl-1H-pyrazol-4-yl)acetamide], the minimal effective concentration fell in the range of 0.01 to 0.1 µM.
Take `Cc1nn(Cc2ccc(C[C@H]3OC(=O)[C@H](CC(C)C)N(C)C(=O)[C@@H](C)OC(=O)[C@H](CC(C)C)N(C)C(=O)[C@@H](Cc4ccccc4)OC(=O)[C@H](CC(C)C)N(C)C(=O)[C@@H](C)OC(=O)[C@H](CC(C)C)N(C)C3=O)cc2)c(C)c1O` [Example 2-44, (3S,6R,9S,12R,15S,18R,21S,24R)-6-benzyl-18-(4-((4-hydroxy-3,5-dimethyl-1H-pyrazol-1-yl)methyl)benzyl)-3,9,15,21-tetraisobutyl-4,10,12,16,22,24-hexamethyl-1,7,13,19-tetraoxa-4,10,16,22-tetraazacyclotetracosan-2,5,8,11,14,17,20,23-octaone]: the minimal effective concentration was in the range of 0.001 to 0.01 µM.
On to `CC(C)C[C@H]1C(=O)O[C@H](Cc2ccc(Cn3cc(-c4cnccn4)cn3)cc2)C(=O)N(C)[C@@H](CC(C)C)C(=O)O[C@H](C)C(=O)N(C)[C@@H](CC(C)C)C(=O)O[C@H](Cc2ccccc2)C(=O)N(C)[C@@H](CC(C)C)C(=O)O[C@H](C)C(=O)N1C` [Example 2-46, (3S,6R,9S,12R,15S,18R,21S,24R)-6-benzyl-3,9,15,21-tetraisobutyl-4,10,12,16,22,24-hexamethyl-18-(4-((4-(pyrazin-2-yl)-1H-pyrazol-1-yl)methyl)benzyl)-1,7,13,19-tetraoxa-4,10,16,22-tetraazacyclotetracosan-2,5,8,11,14,17,20,23-octaone], for which the minimal effective concentration was in the range of 0.001 to 0.01 µM.
Consider `CC(C)C[C@H]1C(=O)O[C@H](Cc2ccc(Cn3cc(-c4ccccn4)cn3)cc2)C(=O)N(C)[C@@H](CC(C)C)C(=O)O[C@H](C)C(=O)N(C)[C@@H](CC(C)C)C(=O)O[C@H](Cc2ccccc2)C(=O)N(C)[C@@H](CC(C)C)C(=O)O[C@H](C)C(=O)N1C` [Example 2-47, (3S,6R,9S,12R,15S,18R,21S,24R)-6-benzyl-3,9,15,21-tetraisobutyl-4,10,12,16,22,24-hexamethyl-18-(4-((4-(pyridin-2-yl)-1H-pyrazol-1-yl)methyl)benzyl)-1,7,13,19-tetraoxa-4,10, 16,22-tetraazacyclotetracosan-2,5,8,11,14,17,20,23-octaone], for which the minimal effective concentration lay in the range of 0.001 to 0.01 µM.
For `Cc1nn(Cc2ccc(C[C@H]3OC(=O)[C@H](CC(C)C)N(C)C(=O)[C@@H](C)OC(=O)[C@H](CC(C)C)N(C)C(=O)[C@@H](Cc4ccccc4)OC(=O)[C@H](CC(C)C)N(C)C(=O)[C@@H](C)OC(=O)[C@H](CC(C)C)N(C)C3=O)cc2)c(C)c1Cl` [Example 2-50, (3S,6R,9S,12R,15S,18R,21S,24R)-6-benzyl-18-(4-((4-chloro-3,5-dimethyl-1H-pyrazol-1-yl)methyl)benzyl)-3,9,15,21-tetraisobutyl-4,10,12,16,22,24-hexamethyl-1,7,13,19-tetraoxa-4,10,16,22-tetraazacyclotetracosan-2,5,8,11,14,17,20,23-octaone] the value was 0.01 to 0.1 µM.
